For this data set, the target named is T1, CYP19 (aromatase) containing microsomes (Homo sapiens, UniProt P11511).
T1 sequence (P11511 1-503): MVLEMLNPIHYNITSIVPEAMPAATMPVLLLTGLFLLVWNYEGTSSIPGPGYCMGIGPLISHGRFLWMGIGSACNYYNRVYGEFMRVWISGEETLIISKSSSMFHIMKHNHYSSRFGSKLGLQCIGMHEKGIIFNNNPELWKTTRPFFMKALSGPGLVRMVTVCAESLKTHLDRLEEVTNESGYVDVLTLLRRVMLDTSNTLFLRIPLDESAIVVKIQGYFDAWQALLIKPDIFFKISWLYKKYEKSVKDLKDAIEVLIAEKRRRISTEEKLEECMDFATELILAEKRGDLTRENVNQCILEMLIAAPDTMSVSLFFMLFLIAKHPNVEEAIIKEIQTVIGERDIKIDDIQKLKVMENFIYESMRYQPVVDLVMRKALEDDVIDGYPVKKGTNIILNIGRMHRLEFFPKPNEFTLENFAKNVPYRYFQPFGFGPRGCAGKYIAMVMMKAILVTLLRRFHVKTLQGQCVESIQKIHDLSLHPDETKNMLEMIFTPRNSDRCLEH
The settings on record: for change in intensity relative to the control: 20 μl of CYP19 aromatase preparation (FIG. 5); for decrease in intensity relative to the control reaction: 2 μM substrate, 1 mM NADPH.

Two compounds from patent US7829714B2, “Method for measuring aromatase activity” (GE Healthcare Limited, priority 2003, dated 2010) can be followed below.

Molecules are shown by their SMILES. Like-named read-outs stand apart in the source and are kept apart here.

Experimental: NADPH was prepared to a final concentration of 1 mM in 100 mM disodium hydrogen phosphate buffer pH7.4.
100 μl of this reagent was dispensed in to replicate wells of a 96 well microtitre plate. To each well was dispensed 20 μl-30 μl of either the CYP19 (aromatase) containing microsomes or control microsomes (no CYP19). All microsomes were adjusted to the same protein concentration with assay buffer. The plates were incubated at 37° C. for 1 hour and then fluorescence intensity measurements were recorded on the Envision Plate Reader (Perkin Elmer, US), excitation 405 nm/emission BFP450 nm.

As for `C[C@]12CCC(=O)C=C1CC[C@@H]1[C@@H]2CC[C@]2(C)C(C(=O)NCCNC(=O)CCCCCn3c4ccccc4c(=O)c4ccccc43)CC[C@@H]12` (stereo partly shown) [Formula XX, 3-oxo-N-(2-{[6-(9-oxoacridin-10(9H)-yl)hexanoyl]amino}ethyl)androst-4-ene-17-carboxamide], the “fluorescence intensity, aromatase microsomes compared to control microsome preparation” value is “greater decrease in fluorescence intensity” and the “change in intensity relative to the control” value worked out at 17.5%. For the same compound, the “decrease in intensity relative to the control reaction” value (300 of microsome preparation, 37° C. for 1 hour (FIG. 3)) stood at 24.2%. The compound also registered a decrease in fluorescence (in the absence of additional co-factor (NADPH) (FIG. 4)) of 16%. Also, the decrease in fluorescence (in the presence of additional NADPH (FIG. 4)) was 24%. Also, the “decrease in intensity relative to the control reaction” value (microsome volume of 200, 37° C. for 1 hour, excitation 405 nm/emission 450 nm (FIG. 3)) is recorded as 17.5%.
For the compound `O=C(O)CCCCCn1c2ccccc2c(=O)c2ccccc21` [compound XVII, 6-(9-oxoacridin-10(9H)-yl)hexanoic acid, reference compound], the “change in intensity relative to the control” value worked out at 5%.
